Consider 1 compound from patent US6469028B1, “Synthesis and use of retinoid compounds having negative hormone and/or anatgonist activities” (Allergan, Inc., priority 1995, dated 2002).

pKd: −log10 of the molar value. Read-outs that look alike come from different tables or passages of the source.

The nature of data set [1]: Example 4: retinoid-induced hypertriglyceridemia (serum triglycerides). The format is in vivo, rats. Here is the method:
Male Fischer rats (6-7 weeks old, n=5) were treated by intragastric intubation with corn oil (vehicle), AGN 191659, AGN 193109 or a combination of AGN 191659 and AGN 193109. AGN 191659 and AGN 193109 were given as fine suspensions in corn oil.
Serum was separated from blood by low speed centrifugation. Total serum triglycerides (triglycerides plus glycerol) were measured with a standard spectrophotometric endpoint assay available commercially as a kit and adapted to a 96-well plate format. Serum triglyceride levels are expressed as the mean±SD. Means were compared statistically by one-way analysis of variance followed by Dunnett's test if significant differences were found. Differences were considered significant at P<0.05.

In a further data set the test system is ECE16-1 cells. Kind of data set: Example 17: EGF dependent proliferation of ECE16-1 cells. The format is cell-based. Here is the method:
ECE16-1 cells were seeded at a density of 1×10^4 cells per cm^2 in complete medium containing DMEM:F12 (3:1), nonessential amino acids, 5% FBS, 5 μg/ml transferring, 2 nM of 3,3′,5 triiodothyronine (thyroid hormone or “T3”), 0.1 nNM cholera toxin, 2 mM L-glutamine, 1.8×10^−4 M adenine and 10 ng/ml EGF. Cells were allowed to attach to plates overnight and then shifted to defined medium containing DMEM:F12 (3:1), 2 mM L-glutamine, nonessential amino acids, 0.1% bovine serum albumin, 1.8×10^−4 M adenine, 5 μg/ml transferring, 2 nM T3, 50 μg/ml ascorbic acid, 100 ug/ml streptomycin, 100 units/ml penicillin and 50 μg/ml gentamicin. Defined medium (DM) was supplemented with 10 ng/ml EGF. […] After three days of treatment, cells were harvested as described by Hembree et al. in Cancer Res. 54:3160 (1994) and cell numbers determined using a COULTER counter.

For data set [2], the system named is retinal pigment epithelium (RPE) cells. Kind of data set: Example 19: proliferation of primary retinal pigment epithelium cultures. The format is cell-based, human. Here is the method:
Primary cultures of human retinal pigment epithelium (RPE) were established according to the method described by Campochiaro et al. in Invest. Opthal & Vis. Sci. 32:65 (1991). 5×10^4 cells were plated in 16-mm wells of 24-well multiwell plates in DMEM (Gibco) containing 5% FBS. […] Cells were fed with fresh media containing the appropriate concentrations of these compounds every two days for a total of five days of treatment. Cells were removed from the plates by gentle digestion with trypsin and the number of cells was counted with an electronic cell counter.
AGN 193109 was tested for its ability to potentiate the anti-proliferative effect of 13-cis retinoic acid (13-cis RA) in primary RPE cultures using conditions and techniques to measure RPE cell proliferation described above. […] More particularly, 13-cis RA is useful in the treatment of several disease states, including acne (Peck et al. N. Engl. J. Med. 300:329 (1977); Jones et al. Br. J. Dermatol. 108:333 (1980)), and squamous cell carcinoma of the skin and cervix in combination treatment with interferon 2α (Lippman et al. J. Natl. Cancer Inst. 84:241 (1992); Moore et al. Seminars in Hematology 31:31 (1994)).
We next tested the ability of AGN 193109 to potentiate the activities of other nuclear receptor hormones in primary RPE cell cultures. Dexamethasone, a synthetic glucocorticoid receptor agonist, is one member of a class of compounds that have been used clinically for their potent anti-inflammatory and immunosuppressive properties. Thyroid hormone (T3; […]) is a natural thyroid hormone receptor agonist used primarily for hormone replacement therapy in the treatment of hypothyroidism.

Data set [3] deals with stromelysin-1 expression in primary foreskin keratinocytes. Briefly: Example 21: stromelysin-1 expression in keratinocytes (RT-PCR). The format is cell-based, human. The note with it: AGN 191183 10^−7 M or AGN 193109 10^−6 M, 24 hours. Here is the method:
Total RNA prepared from mock-treated and retinoid-treated keratinocytes was reverse transcribed and the resulting cDNA was PCR amplified using β-actin or stromelysin-1 oligo primers exactly as described by Nagpal et al. in J. Biol. Chem. 270:923 (1995)), the disclosure of which has been incorporated by reference. A sample (10 μl) from the PCR amplification reaction was removed after every three cycles starting from 18 cycles of PCR amplification. The sample was electrophoresed on a 2% agarose gel and detected after ethidium bromide staining.

In another data set the target is T1, RARα (Homo sapiens, UniProt P10276).
T1 sequence (P10276 1-462): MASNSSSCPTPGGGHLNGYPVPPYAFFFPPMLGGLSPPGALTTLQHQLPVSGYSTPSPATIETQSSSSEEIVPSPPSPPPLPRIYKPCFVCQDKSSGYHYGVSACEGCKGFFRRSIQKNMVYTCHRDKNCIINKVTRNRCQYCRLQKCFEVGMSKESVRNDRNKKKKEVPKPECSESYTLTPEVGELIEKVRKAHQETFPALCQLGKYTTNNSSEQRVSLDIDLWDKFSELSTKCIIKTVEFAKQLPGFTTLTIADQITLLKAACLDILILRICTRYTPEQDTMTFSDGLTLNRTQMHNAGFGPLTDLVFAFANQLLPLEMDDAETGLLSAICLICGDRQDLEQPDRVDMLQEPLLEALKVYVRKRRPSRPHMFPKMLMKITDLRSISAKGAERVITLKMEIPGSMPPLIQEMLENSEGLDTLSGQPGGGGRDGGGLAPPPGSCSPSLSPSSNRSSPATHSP
Briefly: [3H]-ATRA displacement assay, baculovirus expressed receptor. Format: binding. Details: made in house; host or cells: baculovirus expression system.

For `Cc1ccc(C2=CCC(C)(C)c3ccc(C#Cc4ccc(C(=O)O)cc4)cc32)cc1` [Compound 60, 4-[(5,6-dihydro-5,5-dimethyl-8-(4-methylphenyl)-2-naphthalenyl)ethynyl]benzoic acid], the “serum triglycerides versus control” value in data set [1] (AGN 193109 with AGN 191659 at molar ratios of 1:1 and 5:1) was “reduced serum triglycerides to levels that were not significantly different from control”. Further, the “Serum Triglycerides” value came to 52.4 ± 6.3 mg/dL in data set [1] (group B: AGN 193109 19.6 mg/kg oral alone, male Fischer rats); 55.7 ± 14.7 mg/dL in data set [1] (group D: AGN 193109 3.9 mg/kg + AGN 191659 3.7 mg/kg oral); 72.7 ± 8.9 mg/dL in data set [1] (group E: AGN 193109 19.6 mg/kg + AGN 191659 3.7 mg/kg oral). Moreover, in the data set with ECE16-1 cells (1000 nM AGN 193109 alone), the EGF mediated proliferation result is on record as “no effect on the EGF mediated proliferation increase”. For the same compound, the “antagonism of AGN 191183 mediated growth inhibition” value in the data set on ECE16-1 cells (AGN 193109 10 nM with 10 nM AGN 191183) was “approximately 50%”. Further, the “antagonism of AGN 191183 antiproliferative effect” value in the data set with ECE16-1 cells (ten-fold molar excess of AGN 193109 over 10 nM AGN 191183) is given as “completely reversed the antiproliferative effect of AGN 191183”. In addition, in data set [2] (10^−10 M ATRA with 10^−7 M AGN 193109 equals 10^−8 M ATRA alone), the “enhancement of the antiproliferative activity of ATRA” value is listed as “approximately 100 fold”. For the same compound, the “potency of 13-cis RA in repression of RPE cell proliferation” value in data set [2] (AGN 193109 10^−8 or 10^−6M with 13-cis RA 10^−12 to 10^−6M) is recorded as “dramatically increased the potency of 13-cis RA”. In data set [2] (AGN 193109 alone, 10^−10 to 10^−6 M), the “growth rate of the RPE cells” value is “did not substantially alter the growth rate of the RPE cells”. The RPE cell proliferation result in data set [2] (dexamethasone 10^−11 to 10^−6M with 10^−8 or 10^−6M AGN 193109) is recorded as “repressed RPE cell proliferation to an extent that approximated the inhibition caused by treatment with ATRA”; in data set [2] (thyroid hormone 10^−11 to 10^−6M with AGN 193109 10^−8 or 10^−6M), “inhibited RPE cell proliferation in a thyroid hormone dependent manner”. Besides, the “stromelysin-1 mRNA expression” value in data set [3] is recorded as “down-regulation of stromelysin-1 mRNA levels”. Besides, the Kd (as a rule, a measure of binding affinity in units of concentration) on RARα (Table 11, read-out: Kd (nM) RAR-α) was found to be 2 nM. For the same compound, on RARα (as stated in Example 8, read-out: Kd at RAR-α), the pKd – broadly, the Kd on a negative log10 scale, so that one unit is a factor of ten – was 8.00.
